Measurements taken from PMC7996098, “High-Level Extracellular Expression of a New β-N-Acetylglucosaminidase in Escherichia coli for Producing GlcNAc” (Frontiers in Microbiology, 2021).

Biological target: T1, BlNagZ (Bacillus licheniformis, UniProt Q65P58)
T1 construct: gene ybbD; pET26b, PelB signal peptide (excised on secretion) fused to ORF amplified from its start codon; His-tag purified; E. coli BL21(DE3) supernatant
Test: p-nitrophenol release, absorbance […] nm
Format: biochemical
Settings: substrate of the Km not given, taken from the standard assay; pH 5.5, 60 °C (standard assay), 50 mM phosphate; read-out: Km (μ mol/L)

T1 sequence (Q65P58 entry or part of it): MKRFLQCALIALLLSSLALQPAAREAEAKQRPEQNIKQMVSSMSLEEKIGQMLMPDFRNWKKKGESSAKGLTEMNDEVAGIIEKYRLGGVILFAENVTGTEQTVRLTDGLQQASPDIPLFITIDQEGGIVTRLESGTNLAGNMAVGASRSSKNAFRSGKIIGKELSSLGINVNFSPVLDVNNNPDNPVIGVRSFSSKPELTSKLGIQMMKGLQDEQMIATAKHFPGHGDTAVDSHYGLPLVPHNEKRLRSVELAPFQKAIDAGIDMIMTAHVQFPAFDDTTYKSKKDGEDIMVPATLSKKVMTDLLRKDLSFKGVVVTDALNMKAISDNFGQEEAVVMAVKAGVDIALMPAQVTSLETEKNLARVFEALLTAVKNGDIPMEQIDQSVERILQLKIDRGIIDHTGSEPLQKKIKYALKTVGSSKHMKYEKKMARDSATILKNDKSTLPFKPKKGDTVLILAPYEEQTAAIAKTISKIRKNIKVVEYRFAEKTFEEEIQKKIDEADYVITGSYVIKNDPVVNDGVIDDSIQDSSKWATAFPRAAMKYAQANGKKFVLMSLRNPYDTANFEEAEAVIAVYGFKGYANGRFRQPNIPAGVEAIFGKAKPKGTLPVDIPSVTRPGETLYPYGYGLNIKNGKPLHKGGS

Km: 0.000932 mol/L
Compound: CC(=O)N[C@H]1[C@H](Oc2ccc([N+](=O)[O-])cc2)O[C@H](CO)[C@@H](O)[C@@H]1O [pNP-β-D-GlcNAc]
